From ChEMBL document CHEMBL1201862, “PubChem BioAssay data set” (2004)
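Method: 48-hour compound exposure of cells in 96-well plates, five concentrations, linear interpolation of endpoints. GI50: concentration for 50% inhibition of growth.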 Activity calls are given as the source filed them. Rule as the data show it: active = GI50 up to about 1.1 µM and inactive = higher.

Assays:
Assay in all cases: NCI tumour cell line growth inhibition, 48 h
786-0 = test system: 786-0
ACHN = test system: ACHN
BT-549 = test system: BT-549
CAKI-1 = test system: CAKI-1
CCRF-CEM = test system: CCRF-CEM
COLO 205 = test system: COLO 205
DU-145 = test system: DU-145
EKVX = test system: EKVX
KM12 = test system: KM12
LOX IMVI = test system: LOX IMVI
MCF7 = test system: MCF7
NCI-H226 = test system: NCI-H226
NCI-H23 = test system: NCI-H23
NCI-H460 = test system: NCI-H460
OVCAR-5 = test system: OVCAR-5
SF-268 = test system: SF-268
SK-OV-3 = test system: SK-OV-3
T47D = test system: T47D
UACC-257 = test system: UACC-257

Measured: GI50

CC(C)[Si](OCC/C=C/C1CCC(=O)C1C(O)C1CCCCC1)(C(C)C)C(C)C (stereo unspecified)
inactive: 786-0 15.9 µM | ACHN 14.8 µM | BT-549 18.9 µM | CAKI-1 14.7 µM | CCRF-CEM 19.5 µM | COLO 205 16.3 µM | DU-145 16.4 µM | EKVX 15.5 µM | KM12 15.9 µM | LOX IMVI 17.1 µM | MCF7 15.9 µM | NCI-H226 16 µM | NCI-H23 15.6 µM | NCI-H460 17 µM | OVCAR-5 18.2 µM | SF-268 7.13 µM | SK-OV-3 15.7 µM | T47D 15 µM | UACC-257 15.4 µM

O=C(Nc1sccc1S(=O)(=O)c1ccc(Cl)cc1)c1ccccc1
inactive: 786-0 > 100 µM | ACHN > 100 µM | BT-549 > 100 µM | CAKI-1 > 100 µM | CCRF-CEM > 100 µM | COLO 205 > 100 µM | DU-145 > 100 µM | EKVX > 100 µM | KM12 > 100 µM | LOX IMVI > 100 µM | MCF7 > 100 µM | NCI-H226 > 100 µM | NCI-H23 > 100 µM | NCI-H460 > 100 µM | OVCAR-5 > 100 µM | SF-268 > 100 µM | SK-OV-3 > 100 µM | T47D > 100 µM | UACC-257 85.1 µM

O/N=C1\CC2(N3CCOCC3)CCC1(c1ccccc1)CC2
inactive: 786-0 > 100 µM | ACHN > 100 µM | BT-549 > 100 µM | CAKI-1 > 100 µM | CCRF-CEM > 100 µM | COLO 205 > 100 µM | DU-145 > 100 µM | EKVX > 100 µM | KM12 > 100 µM | LOX IMVI > 100 µM | MCF7 > 100 µM | NCI-H226 > 100 µM | NCI-H23 > 100 µM | NCI-H460 > 100 µM | OVCAR-5 > 100 µM | SF-268 > 100 µM | SK-OV-3 > 100 µM | T47D > 100 µM | UACC-257 > 100 µM

CN(C)c1ccc(/C=N/c2nc3cc4sc(/N=C/c5ccc(N(C)C)cc5)nc4cc3s2)cc1
inactive: 786-0 49.7 µM | ACHN 66.1 µM | BT-549 71 µM | CAKI-1 21.3 µM | CCRF-CEM 6.3 µM | COLO 205 4.75 µM | DU-145 8.22 µM | EKVX > 100 µM | KM12 46.7 µM | LOX IMVI 47.8 µM | MCF7 12.6 µM | NCI-H226 33.3 µM | NCI-H23 28.5 µM | NCI-H460 5.4 µM | OVCAR-5 > 100 µM | SF-268 45 µM | SK-OV-3 41.8 µM | T47D 42.5 µM | UACC-257 > 100 µM
